Test results as given in paper PMC3794980, “Identification of Conserved and HLA Promiscuous DENV3 T-Cell Epitopes” (PLoS Neglected Tropical Diseases, 2013).
pIC50: −log10 of the molar value.

Key:
Assay in all cases: biochemical
Assay type in all cases: binding
DRB3*0101 = DRB3*0101 (Homo sapiens, UniProt P01903+P79483)
DRB4*0101 = DRB4*0101 (Homo sapiens, UniProt P01903+P13762, G164S)
DRB5*0101 = DRB5*0101 (Homo sapiens, UniProt P01903+Q30154)

SMILES | pIC50 (DRB3*0101) | pIC50 (DRB4*0101) | pIC50 (DRB5*0101)
CC[C@H](C)[C@H](NC(=O)CNC(=O)[C@H](CO)NC(=O)[C@H](CCCCN)NC(=O)[C@H](CCCCN)NC(=O)[C@H](Cc1ccc(O)cc1)NC(=O)[C@H](CC(C)C)NC(=O)[C@H](CC(=O)O)NC(=O)[C@H](Cc1ccccc1)NC(=O)[C@H](CCC(=O)O)NC(=O)[C@@H](N)CCCCN)C(=O)N[C@H](C(=O)N[C@@H](CCC(=O)O)C(=O)N[C@H](C(=O)N[C@@H](CC(=O)O)C(=O)N[C@@H](CCCNC(=N)N)C(=O)N[C@H](C(=O)O)[C@@H](C)O)C(C)C)[C@@H](C)O [NS5 23-39] | 5.24 | 5.46 | 5.00
CC[C@H](C)[C@H](NC(=O)[C@H](CCC(=O)O)NC(=O)CNC(=O)[C@H](CCCNC(=N)N)NC(=O)[C@H](CCCCN)NC(=O)[C@@H](N)CC(C)C)C(=O)N[C@H](C(=O)N[C@@H](Cc1c[nH]cn1)C(=O)N[C@@H](Cc1c[nH]cn1)C(=O)N[C@@H](C)C(=O)N[C@H](C(=O)N[C@@H](CO)C(=O)N[C@@H](CCCNC(=N)N)C(=O)NCC(=O)N[C@@H](CO)C(=O)N[C@@H](C)C(=O)N[C@@H](CCCCN)C(=O)O)C(C)C)[C@@H](C)O [NS5 45-61] | 5.12 | 8.07 | 6.35
CC[C@H](C)[C@H](NC(=O)[C@H](CS)NC(=O)[C@H](Cc1ccccc1)NC(=O)[C@H](CCC(N)=O)NC(=O)[C@@H](N)CC(N)=O)C(=O)N[C@@H](CCCCN)C(=O)N[C@H](C(=O)N[C@@H](CC(C)C)C(=O)N[C@@H](CC(N)=O)C(=O)N1CCC[C@H]1C(=O)N[C@@H](Cc1ccc(O)cc1)C(=O)N[C@@H](CCSC)C(=O)N1CCC[C@H]1C(=O)N[C@H](C(=O)N[C@H](C(=O)N[C@H](C(=O)N[C@@H](CCC(=O)O)C(=O)O)[C@@H](C)CC)C(C)C)[C@@H](C)O)C(C)C [NS5 175-191] | 5.87 | 5.18 | 6.14
CC[C@H](C)[C@H](NC(=O)[C@H](CCCNC(=N)N)NC(=O)[C@H](CCCCN)NC(=O)[C@@H](NC(=O)[C@H](CCCNC(=N)N)NC(=O)[C@H](CCC(=O)O)NC(=O)CNC(=O)[C@@H](NC(=O)[C@@H](NC(=O)[C@H](CC(=O)O)NC(=O)[C@H](CCSC)NC(=O)[C@H](CC(N)=O)NC(=O)[C@@H]1CCCN1C(=O)[C@@H](NC(=O)[C@H](CCC(=O)O)NC(=O)[C@@H]1CCCN1)[C@@H](C)O)C(C)C)[C@@H](C)CC)[C@@H](C)CC)C(=O)N[C@@H](CCCCN)C(=O)O [NS5 268-284] | 5.86 | 6.06 | 5.55
CSCC[C@H](NC(=O)[C@H](CCSC)NC(=O)[C@H](CC(N)=O)NC(=O)[C@H](Cc1ccc(O)cc1)NC(=O)[C@@H](NC(=O)[C@H](CS)NC(=O)[C@H](CO)NC(=O)CN)C(C)C)C(=O)NCC(=O)N[C@@H](CCCCN)C(=O)N[C@@H](CCCNC(=N)N)C(=O)N[C@@H](CCC(=O)O)C(=O)N[C@@H](CCCCN)C(=O)N[C@@H](CCCCN)C(=O)N[C@@H](CC(C)C)C(=O)NCC(=O)N[C@@H](CCC(=O)O)C(=O)O [NS5 447-463] | 5.76 | 5.07 | 7.60
CC(C)C[C@H](NC(=O)[C@H](Cc1ccccc1)NC(=O)CN)C(=O)N[C@@H](CC(N)=O)C(=O)N[C@@H](CCC(=O)O)C(=O)N[C@@H](CC(=O)O)C(=O)N[C@@H](Cc1c[nH]cn1)C(=O)N[C@@H](Cc1c[nH]c2ccccc12)C(=O)N[C@@H](Cc1ccccc1)C(=O)N[C@@H](CO)C(=O)N[C@@H](CCCNC(=N)N)C(=O)N[C@@H](CCC(=O)O)C(=O)N[C@@H](CC(N)=O)C(=O)N[C@@H](CO)C(=O)N[C@@H](Cc1ccc(O)cc1)C(=O)N[C@@H](CO)C(=O)NCC(=O)O [NS5 489-505] | 6.41 | 4.86 | 6.03
CC(C)C[C@H](N)C(=O)N[C@H](C(=O)N[C@@H](Cc1ccc(O)cc1)C(=O)N[C@@H](CCC(N)=O)C(=O)N[C@@H](CC(N)=O)C(=O)N[C@@H](CCCCN)C(=O)N[C@H](C(=O)N[C@H](C(=O)N[C@@H](CCCCN)C(=O)N[C@H](C(=O)N[C@@H](CCC(N)=O)C(=O)N[C@@H](CCCNC(=N)N)C(=O)N1CCC[C@H]1C(=O)N[C@H](C(=O)N1CCC[C@H]1C(=O)N[C@@H](CCCCN)C(=O)NCC(=O)O)[C@@H](C)O)C(C)C)C(C)C)C(C)C)[C@@H](C)O [NS5 570-586] | 5.34 | 7.89 | 7.55
CC[C@H](C)[C@H](NC(=O)[C@@H](NC(=O)[C@H](CC(=O)O)NC(=O)[C@H](CCSC)NC(=O)[C@@H](NC(=O)[C@@H](NC(=O)CNC(=O)[C@H](CCCCN)NC(=O)[C@@H]1CCCN1C(=O)[C@@H](NC(=O)[C@@H]1CCCN1C(=O)[C@H](CCCNC(=N)N)NC(=O)[C@H](CCC(N)=O)NC(=O)[C@@H](NC(=O)[C@H](CCCCN)NC(=O)[C@@H](NC(=O)[C@@H](N)C(C)C)C(C)C)C(C)C)[C@@H](C)O)[C@@H](C)O)C(C)C)[C@@H](C)CC)C(=O)O [NS5 576-592] | 5.54 | 6.97 | 7.08
CC[C@H](C)[C@H](NC(=O)[C@H](CC(=O)O)NC(=O)[C@H](CCSC)NC(=O)[C@@H](N)C(C)C)C(=O)N[C@H](C(=O)N[C@@H](CO)C(=O)N[C@@H](CCCNC(=N)N)C(=O)N[C@@H](CCCCN)C(=O)N[C@@H](CC(=O)O)C(=O)N[C@@H](CCC(N)=O)C(=O)N[C@@H](CCCNC(=N)N)C(=O)NCC(=O)N[C@@H](CO)C(=O)NCC(=O)N[C@@H](CCC(N)=O)C(=O)N[C@H](C(=O)NCC(=O)O)C(C)C)[C@@H](C)CC [NS5 588-604] | 5.37 | 5.20 | 4.77
CC[C@H](C)[C@H](NC(=O)[C@@H](N)CCCCN)C(=O)N[C@H](C(=O)N[C@@H](CCC(N)=O)C(=O)N[C@@H](Cc1c[nH]c2ccccc12)C(=O)N[C@@H](CC(C)C)C(=O)N[C@@H](CCC(=O)O)C(=O)N[C@H](C(=O)N[C@@H](CCCCN)C(=O)NCC(=O)N[C@H](C(=O)N[C@@H](CCC(=O)O)C(=O)N[C@@H](CCCNC(=N)N)C(=O)N[C@@H](CC(C)C)C(=O)N[C@@H](CCCCN)C(=O)N[C@@H](CCCNC(=N)N)C(=O)N[C@@H](CCSC)C(=O)O)C(C)C)[C@@H](C)O)[C@@H](C)O [NS5 642-658] | 4.91 | 4.82 | 8.29
CC[C@H](C)[C@H](NC(=O)[C@H](C)NC(=O)[C@@H](N)CCSC)C(=O)N[C@@H](CO)C(=O)NCC(=O)N[C@@H](CC(=O)O)C(=O)N[C@@H](CC(=O)O)C(=O)N[C@@H](CS)C(=O)N[C@H](C(=O)N[C@H](C(=O)N[C@@H](CCCCN)C(=O)N1CCC[C@H]1C(=O)N[C@H](C(=O)N[C@@H](CC(=O)O)C(=O)N[C@@H](CC(=O)O)C(=O)N[C@@H](CCCNC(=N)N)C(=O)N[C@@H](Cc1ccccc1)C(=O)O)[C@@H](C)CC)C(C)C)C(C)C [NS5 658-674] | 5.71 | 4.71 | 5.81
CC[C@H](C)[C@H](N)C(=O)N[C@@H](CC(=O)O)C(=O)N[C@@H](CC(=O)O)C(=O)N[C@@H](CCCNC(=N)N)C(=O)N[C@@H](Cc1ccccc1)C(=O)N[C@@H](C)C(=O)N[C@@H](CC(N)=O)C(=O)N[C@@H](C)C(=O)N[C@@H](CC(C)C)C(=O)N[C@@H](CC(C)C)C(=O)N[C@@H](C)C(=O)N[C@@H](CC(C)C)C(=O)N[C@@H](CC(N)=O)C(=O)N[C@@H](CC(=O)O)C(=O)N[C@@H](CCSC)C(=O)NCC(=O)N[C@@H](CCCCN)C(=O)O [NS5 670-686] | 5.12 | 6.01 | 6.32
